Test system: gray mold fungus (Botrytis cinerea)
Test: cucumber leaf disk test against gray mold fungus, preventive value
Type: in vivo
Conditions: single compound, 15° C., four days
Experimental: True leaf of cucumber was punched out with cork borer to 13 mm in diameter to prepare a leaf disk. In 24 well microwell plate that was dispensed with 1 ml 0:8% water agar, the leaf disk was placed such that the upper side of the leaf was in an upward direction. Thereto was added 20 micro liter a testing solution prepared by mixing a dimethyl sulfoxide solution of the present amide compound and a dimethyl sulfoxide solution of benomyl or carbendazim to a predetermined concentration to treat the leaf disk.
After confirming that the testing medical solution was dried, conidium of gray mold fungus (Botrytis cinerea) was suspended into potato dextrose broth (DIFCO) in a density of about 10^5 conidia/mL and was then subjected to a spray inoculation. After leaving to stand the leaf disk in a growth chamber set up at 15° C. for four days, an onset area on each leaf was measured and then calculated an onset area rate (hereinafter, referred to as an onset area rate belonging to treated group).
The same operation was carried out with 20 micro liter water instead of 20 micro liter the testing medicine solution to calculate an onset area rate (hereinafter, referred to an onset area rate belonging to non-treated group).
A preventive value was calculated from the above onset area rate belonging to treated group and the onset area rate belonging to non-treated group by the following equation:
Preventive value(%)=100×(A−B)/A
A: an onset area rate belonging to non-treated group
B: an onset area rate belonging to treated group
onset area rate=(onset area of the leaf disk)/(the total area of the leaf disk)
For comparison, the same operations as described in Test Examples 1 to 4 were carried out except that the testing medicine solution was substituted with predetermined concentration of a dimethyl sulfoxide solution of benomyl or carbendazim, so as to calculate a preventive value.

[1] = treatment concentration 0.5 ppm
[2] = treatment concentration 5.0 ppm

COC(=O)Nc1nc2ccccc2[nH]1 [carbendazim]
preventive value (%) [1]: 45%
preventive value (%) [2]: 55.5%

CNC(=O)C(OC)c1ccccc1COc1cc(C)ccc1C (stereo not drawn) [the present amide compound]
preventive value (%) (treatment concentration 1.0 ppm): 46%
preventive value (%) (treatment concentration 2.5 ppm): 55.5%

CCCCNC(=O)n1c(NC(=O)OC)nc2ccccc21 [benomyl]
preventive value (%) [1]: 47.5%
preventive value (%) [2]: 56.5%

— patent US20130296391A1, “PLANT DISEASE CONTROLLING COMPOSITION AND METHOD FOR CONTROLLING PLANT DISEASE” (SUMITOMO CHEMICAL COMPANY, LIMITED, priority 2010, published 2013)
